In patent publication US5563155A, “Individual stereosiomers of 7-[3-(aminoalkyl)-1-pyrrolidinyl]-quinolones and naphthyridones as antibacterial agents” (Warner-Lambert Company, priority 1995, dated 1996):
Converted amounts (≈) assume the structure as drawn.

Assays:
Format in all cases: cell-based
[1] = system: Ent. cloacae MA2646; test: in vitro antibacterial activity, microtitration dilution (MIC), Ent. cloacae MA2646; details: Enterobacter cloacae, read-out: minimum inhibiting concentration (MIC)
Excerpt: (§1) The in vitro antibacterial activity, is obtained by the microtitration dilution method as described in Heifetz, et al., Antimicr. Agents & Chemother., 6, 124 (1974), which is incorporated herein by reference.
(§2) By use of the above methods, the following minimum inhibiting concentration values (MICs in μg/mL), PD50 's in mg/kg, no effect phototoxicity dose in mg/kg and the cytotoxicity IC50 in μg/mL were obtained for representative enantiomers of the invention and compounds of the prior art as shown in the table.

[2] = system: Esch. coli Vogel; test: in vitro antibacterial activity, microtitration dilution (MIC), Esch. coli Vogel; details: Escherichia coli, read-out: minimum inhibiting concentration (MIC)
Excerpt: as §1, §2

[3] = system: Klebs. pneumoniae MGH-2; test: in vitro antibacterial activity, microtitration dilution (MIC), Klebs. pneumoniae MGH-2; details: Klebsiella pneumoniae, MGH2, read-out: minimum inhibiting concentration (MIC)
Excerpt: as §1, §2

[4] = system: Prot. rettgeri M 1771; test: in vitro antibacterial activity, microtitration dilution (MIC), Prot. rettgeri M 1771; details: Providencia rettgeri, M1771, read-out: minimum inhibiting concentration (MIC)
Excerpt: as §1, §2

[5] = system: Pseud. aeruginosa UI-18; test: in vitro antibacterial activity, microtitration dilution (MIC), Pseud. aeruginosa UI-18; details: Pseudomonas aeruginosa, UI18, read-out: minimum inhibiting concentration (MIC)
Excerpt: as §1, §2

[6] = system: Staph. aureus H 228; test: in vitro antibacterial activity, microtitration dilution (MIC), Staph. aureus H 228; details: Staphylococcus aureus, H228, read-out: minimum inhibiting concentration (MIC)
Excerpt: as §1, §2

[7] = system: Staph. aureus UC-76; test: in vitro antibacterial activity, microtitration dilution (MIC), Staph. aureus UC-76; details: Staphylococcus aureus, UC76, read-out: minimum inhibiting concentration (MIC)
Excerpt: as §1, §2

[8] = system: Strep. faecalis MGH-2; test: in vitro antibacterial activity, microtitration dilution (MIC), Strep. faecalis MGH-2; details: Enterococcus faecalis, MGH2, read-out: minimum inhibiting concentration (MIC)
Excerpt: as §1, §2

[9] = system: Strep. pheumoniae SV-1; test: in vitro antibacterial activity, microtitration dilution (MIC), Strep. pneumoniae SV-1; details: Streptococcus pneumoniae, SV1, read-out: minimum inhibiting concentration (MIC)
Excerpt: as §1, §2

[10] = system: Strep. pyogenes C-203; test: in vitro antibacterial activity, microtitration dilution (MIC), Strep. pyogenes C-203; details: Streptococcus pyogenes, C203, read-out: minimum inhibiting concentration (MIC)
Excerpt: as §1, §2

MIC [1]	MIC [2]	MIC [3]	MIC [4]	MIC [5]	MIC [6]	MIC [7]	MIC [8]	MIC [9]	MIC [10]	SMILES
0.2 µg/mL (≈ 0.478 µM)	0.1 µg/mL (≈ 0.239 µM)	0.2 µg/mL (≈ 0.478 µM)	0.4 µg/mL (≈ 0.956 µM)	1.6 µg/mL (≈ 3.82 µM)	0.013 µg/mL (≈ 0.0311 µM)	0.006 µg/mL (≈ 0.0143 µM)	0.025 µg/mL (≈ 0.0597 µM)	0.006 µg/mL (≈ 0.0143 µM)	0.006 µg/mL (≈ 0.0143 µM)	CN[C@@H](C)[C@@H]1CCN(c2c(F)c(N)c3c(=O)c(C(=O)O)cn(C4CC4)c3c2OC)C1 [Example 56, 3R,1S-5-amino-1-cyclopropyl-6-fluoro-1,4-dihydro-8-methoxy-7-[3-(1-N-methylaminoethyl)-1-pyrrolidinyl]-4-oxo-3-quinolinecarboxylic acid]
0.1 µg/mL (≈ 0.257 µM)	0.1 µg/mL (≈ 0.257 µM)	0.2 µg/mL (≈ 0.515 µM)	0.4 µg/mL (≈ 1.03 µM)	1.6 µg/mL (≈ 4.12 µM)	0.05 µg/mL (≈ 0.129 µM)	0.006 µg/mL (≈ 0.0154 µM)	0.025 µg/mL (≈ 0.0644 µM)	0.013 µg/mL (≈ 0.0335 µM)	0.025 µg/mL (≈ 0.0644 µM)	C[C@H]([C@H]1CCN(c2nc3c(cc2F)c(=O)c(C(=O)O)cn3C2CC2)C1)N(C)C [Example 69, 3S,1R-1-cyclopropyl-7-[3-[1-(dimethylamino)ethyl]-1-pyrrolidinyl]-6-fluoro-1,4-dihydro-4-oxo-1,8-naphthyridine-3-carboxylic acid]
0.8 µg/mL (≈ 1.92 µM)	0.8 µg/mL (≈ 1.92 µM)	1.6 µg/mL (≈ 3.83 µM)	3.1 µg/mL (≈ 7.43 µM)	6.3 µg/mL (≈ 15.1 µM)	0.2 µg/mL (≈ 0.479 µM)	0.05 µg/mL (≈ 0.12 µM)	0.4 µg/mL (≈ 0.958 µM)	0.2 µg/mL (≈ 0.479 µM)	0.2 µg/mL (≈ 0.479 µM)	CCN[C@@H](C)[C@H]1CCN(c2c(F)cc3c(=O)c(C(=O)O)cn(C4CC4)c3c2OC)C1 [Example 20, 3S,1S-1-cyclopropyl-6-fluoro-7-[3-(1-N-ethylaminoethyl)1-pyrrolidinyl]-8-methoxy-1,4-dihydro-4-oxo-3quinolinecarboxylic acid]
0.2 µg/mL (≈ 0.492 µM)	0.2 µg/mL (≈ 0.492 µM)	0.8 µg/mL (≈ 1.97 µM)	0.8 µg/mL (≈ 1.97 µM)	3.1 µg/mL (≈ 7.63 µM)	0.1 µg/mL (≈ 0.246 µM)	0.05 µg/mL (≈ 0.123 µM)	0.2 µg/mL (≈ 0.492 µM)	0.2 µg/mL (≈ 0.492 µM)	0.2 µg/mL (≈ 0.492 µM)	CN[C@@H](C)[C@H]1CCN(c2c(F)c(N)c3c(=O)c(C(=O)O)cn(C4CC4)c3c2F)C1 [Example 35, 3S,1S-5-amino-1-cyclopropyl-6,8-difluoro-7-[3-(1-N-methylaminoethyl)-1-pyrrolidinyl]-1,4-dihydro-4-oxo-3-quinolinecarboxylic acid]
0.1 µg/mL (≈ 0.248 µM)	0.1 µg/mL (≈ 0.248 µM)	0.2 µg/mL (≈ 0.497 µM)	0.8 µg/mL (≈ 1.99 µM)	1.6 µg/mL (≈ 3.98 µM)	0.05 µg/mL (≈ 0.124 µM)	0.025 µg/mL (≈ 0.0621 µM)	0.05 µg/mL (≈ 0.124 µM)	0.013 µg/mL (≈ 0.0323 µM)	0.013 µg/mL (≈ 0.0323 µM)	CCN[C@@H](C)[C@@H]1CCN(c2cc3c(c(N)c2F)c(=O)c(C(=O)O)cn3C2CC2)C1 [Example 55, 3R,1S-5-amino-7-[3-(1-N-ethylaminoethyl)-1-pyrrolidinyl]-1-cyclopropyl-6-fluoro-1,4-dihydro-4-oxo-3-quinolinecarboxylic acid]
0.2 µg/mL (≈ 0.496 µM)	0.1 µg/mL (≈ 0.248 µM)	0.2 µg/mL (≈ 0.496 µM)	0.2 µg/mL (≈ 0.496 µM)	1.6 µg/mL (≈ 3.97 µM)	0.013 µg/mL (≈ 0.0322 µM)	≤ 0.003 µg/mL	0.025 µg/mL (≈ 0.062 µM)	0.006 µg/mL (≈ 0.0149 µM)	0.006 µg/mL (≈ 0.0149 µM)	CCOc1c(N2CC[C@@H]([C@H](C)N)C2)c(F)cc2c(=O)c(C(=O)O)cn(C3CC3)c12 [Example 49, 3R,1S-7-[3-(1-aminoethyl)-1-pyrrolidinyl]-1-cyclopropyl-8-ethoxy-6-fluoro-1,4-dihydro-4-oxo-3-quinolinecarboxylic acid]
0.2 µg/mL (≈ 0.449 µM)	0.2 µg/mL (≈ 0.449 µM)	0.4 µg/mL (≈ 0.898 µM)	0.4 µg/mL (≈ 0.898 µM)	1.6 µg/mL (≈ 3.59 µM)	0.025 µg/mL (≈ 0.0561 µM)	0.013 µg/mL (≈ 0.0292 µM)	0.1 µg/mL (≈ 0.224 µM)	0.013 µg/mL (≈ 0.0292 µM)	0.013 µg/mL (≈ 0.0292 µM)	Cc1c(F)c(N2CC[C@@H]([C@@H](C)N)C2)cc2c1c(=O)c(C(=O)O)cn2-c1ccc(F)cc1F [Example 46, 3R,1R-7-[3-(1-aminoethyl)-1-pyrrolidinyl]-1-(2,4-difluorophenyl)-6-fluoro-1,4-dihydro-5-methyl-4-oxo-3-quinolinecarboxylic acid]
0.4 µg/mL (≈ 0.996 µM)	0.4 µg/mL (≈ 0.996 µM)	0.4 µg/mL (≈ 0.996 µM)	1.6 µg/mL (≈ 3.99 µM)	3.1 µg/mL (≈ 7.72 µM)	0.05 µg/mL (≈ 0.125 µM)	0.013 µg/mL (≈ 0.0324 µM)	0.05 µg/mL (≈ 0.125 µM)	0.05 µg/mL (≈ 0.125 µM)	0.05 µg/mL (≈ 0.125 µM)	CCN[C@@H](C)[C@@H]1CCN(c2cc3c(c(C)c2F)c(=O)c(C(=O)O)cn3C2CC2)C1 [Example 52, 3R,1S-1-cyclopropyl-7-[3-(1-N-ethylaminoethyl)-1-pyrrolidinyl]-6-fluoro-1,4-dihydro-5-methyl-4-oxo-3-quinolinecarboxylic acid]
0.05 µg/mL (≈ 0.128 µM)	0.025 µg/mL (≈ 0.0642 µM)	0.05 µg/mL (≈ 0.128 µM)	0.05 µg/mL (≈ 0.128 µM)	0.4 µg/mL (≈ 1.03 µM)	0.006 µg/mL (≈ 0.0154 µM)	≤ 0.003 µg/mL	0.006 µg/mL (≈ 0.0154 µM)	≤ 0.003 µg/mL	≤ 0.003 µg/mL	COc1c(N2CC[C@@H]([C@H](C)N)C2)c(F)cc2c(=O)c(C(=O)O)cn(C3CC3)c12 [Example 44, 3R,1S-7-[3-(1-aminoethyl)-1-pyrrolidinyl]-1-cyclopropyl-6-fluoro-1,4-dihydro-8-methoxy-4-oxo-3-quinolinecarboxylic acid]
0.4 µg/mL (≈ 0.871 µM)	0.4 µg/mL (≈ 0.871 µM)	0.4 µg/mL (≈ 0.871 µM)	0.8 µg/mL (≈ 1.74 µM)	3.1 µg/mL (≈ 6.75 µM)	0.1 µg/mL (≈ 0.218 µM)	0.05 µg/mL (≈ 0.109 µM)	0.2 µg/mL (≈ 0.435 µM)	0.2 µg/mL (≈ 0.435 µM)	0.2 µg/mL (≈ 0.435 µM)	CN[C@H](C)[C@@H]1CCN(c2cc3c(c(C)c2F)c(=O)c(C(=O)O)cn3-c2ccc(F)cc2F)C1 [Example 63]
0.1 µg/mL (≈ 0.24 µM)	0.1 µg/mL (≈ 0.24 µM)	0.2 µg/mL (≈ 0.479 µM)	0.4 µg/mL (≈ 0.958 µM)	1.6 µg/mL (≈ 3.83 µM)	0.006 µg/mL (≈ 0.0144 µM)	≤ 0.003 µg/mL	0.025 µg/mL (≈ 0.0599 µM)	≤ 0.003 µg/mL	≤ 0.003 µg/mL	CN[C@@H](C)[C@@H]1CCN(c2c(F)c(C)c3c(=O)c(C(=O)O)cn(C4CC4)c3c2OC)C1 [Example 61, 3R,1S-1-cyclopropyl-6-fluoro-7-[3-(1-N-methylaminoethyl)-1-pyrrolidinyl]-5-methyl-8-methoxy-1,4-dihydro-4-oxo-3-quinolinecarboxylic acid]
0.2 µg/mL (≈ 0.515 µM)	0.2 µg/mL (≈ 0.515 µM)	0.4 µg/mL (≈ 1.03 µM)	1.6 µg/mL (≈ 4.12 µM)	3.1 µg/mL (≈ 7.98 µM)	0.2 µg/mL (≈ 0.515 µM)	0.1 µg/mL (≈ 0.257 µM)	0.2 µg/mL (≈ 0.515 µM)	0.1 µg/mL (≈ 0.257 µM)	0.4 µg/mL (≈ 1.03 µM)	CCN[C@@H](C)[C@H]1CCN(c2nc3c(cc2F)c(=O)c(C(=O)O)cn3C2CC2)C1 [Example 80, 3S,1S-1-cyclopropyl-7-[3-[1-(ethylamino)ethyl]-1-pyrrolidinyl]-6-fluoro-1,4-dihydro-4-oxo-1,8-naphthyridine-3-carboxylic acid]
0.05 µg/mL (≈ 0.124 µM)	0.05 µg/mL (≈ 0.124 µM)	0.1 µg/mL (≈ 0.247 µM)	0.1 µg/mL (≈ 0.247 µM)	0.8 µg/mL (≈ 1.98 µM)	0.006 µg/mL (≈ 0.0148 µM)	0.003 µg/mL (≈ 0.00742 µM)	0.006 µg/mL (≈ 0.0148 µM)	0.003 µg/mL (≈ 0.00742 µM)	0.003 µg/mL (≈ 0.00742 µM)	COc1c(N2CC[C@@H]([C@H](C)N)C2)c(F)c(N)c2c(=O)c(C(=O)O)cn(C3CC3)c12 [Example 59, 3R,1S-5-amino-7-[3-(1-aminoethyl)-1-pyrrolidinyl]-1-cyclopropyl-6-fluoro-1,4-dihydro-8-methoxy-4-oxo-3-quinolinecarboxylic acid]
